Common to all, as to assay type: biochemical
One test addresses T1, recombinant human VAP-1 (Homo sapiens, UniProt Q16853).
T1 construct: purchased R&D systems
T1 sequence (Q16853 1-763): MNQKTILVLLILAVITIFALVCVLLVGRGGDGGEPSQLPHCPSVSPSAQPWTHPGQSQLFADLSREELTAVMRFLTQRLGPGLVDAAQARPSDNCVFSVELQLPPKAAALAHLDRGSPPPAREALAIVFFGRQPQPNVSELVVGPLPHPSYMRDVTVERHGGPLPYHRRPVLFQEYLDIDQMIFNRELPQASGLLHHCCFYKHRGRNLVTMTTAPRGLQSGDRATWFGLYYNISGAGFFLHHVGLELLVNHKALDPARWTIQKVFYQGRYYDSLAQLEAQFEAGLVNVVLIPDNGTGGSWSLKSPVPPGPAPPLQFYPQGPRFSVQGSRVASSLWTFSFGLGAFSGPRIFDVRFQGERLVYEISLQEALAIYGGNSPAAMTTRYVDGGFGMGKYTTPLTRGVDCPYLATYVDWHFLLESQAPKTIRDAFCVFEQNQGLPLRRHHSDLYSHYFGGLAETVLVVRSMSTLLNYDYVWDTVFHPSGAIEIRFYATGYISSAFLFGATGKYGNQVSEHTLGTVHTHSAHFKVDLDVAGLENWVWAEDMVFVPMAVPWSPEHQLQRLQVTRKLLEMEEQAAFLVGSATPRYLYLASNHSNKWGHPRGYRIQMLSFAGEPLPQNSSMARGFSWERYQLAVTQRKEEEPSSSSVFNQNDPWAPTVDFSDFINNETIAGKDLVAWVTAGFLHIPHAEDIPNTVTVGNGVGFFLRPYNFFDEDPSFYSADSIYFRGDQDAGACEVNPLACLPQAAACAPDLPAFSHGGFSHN
Put plainly: Activity on recombinant human VAP-1, Amplex Red HRP-coupled hydrogen peroxide assay, benzylamine substrate. Particulars: recombinant human VAP-1, benzylamine substrate, read-out: Inhibitory Activity (IC50, nM) human VAP-1. The method, then:
(§1) The compounds according to the present technology were evaluated in terms of activity on recombinant human VAP-1 (R&D systems) by measuring the level of hydrogen peroxide in horseradish peroxidase (HRP)-coupled reaction using Amplex Red Hydrogen Peroxide Assay Kit (Molecular Probes, Invitrogen, USA). The experiment was carried out at room temperature using benzylamine as a substrate. In the HRP-coupled reaction, hydrogen peroxide oxidation of 10-acetyl-3,7-dihydroxyphenoxazine (Amplex Red reagent) produces resorufin, which is a highly fluorescent compound. Briefly, the test compound was dissolved in dimethyl sulfoxide (DMSO) at a concentration of 20 mM. The dose-response assessment was made by 1:3 serial dilution in DMSO, thereby creating an 8 point curve. The concentration of the upper part was controlled according to the efficacy of the compounds, followed by dilution with a reaction buffer solution to obtain a final DMSO concentration less than 1%. To each well of a 96 black well plate, human VAP-1 purified in 50 mM sodium phosphate buffer solution (pH7.4) was added. The test compounds dissolved in DMSO were incubated with the human VAP-1 enzymes at 37° C. for 30 minutes. After 30-minute incubation, each well is added with a reaction mixture containing 200 uM Amplex Red reagent prepared from 50 mM sodium phosphate buffer solution (pH 7.4), 1 mM benzylamine, and 1 U/mL HRP. Fluorescence intensity was measured at several time points during 1-2 hours using a microplate reader (Flexstation3, Molecular Devices) under the wavelength condition exciting at 544 nm and reading the emission at 590 nm. The inhibitory effect of the compounds was measured as a decrease (%) in the signal rate as compared to the control group without any inhibitor (only diluted DMSO). Data was fixed to a logistic model with four variables and IC50 value was calculated using GraphPad Prism program.

For test [1], the target named is T2, recombinant human MAO-A (monoamine oxidase-A) (Homo sapiens, UniProt P21397).
T2 construct: purchased Sigma-Aldrich
T2 sequence (P21397 1-527): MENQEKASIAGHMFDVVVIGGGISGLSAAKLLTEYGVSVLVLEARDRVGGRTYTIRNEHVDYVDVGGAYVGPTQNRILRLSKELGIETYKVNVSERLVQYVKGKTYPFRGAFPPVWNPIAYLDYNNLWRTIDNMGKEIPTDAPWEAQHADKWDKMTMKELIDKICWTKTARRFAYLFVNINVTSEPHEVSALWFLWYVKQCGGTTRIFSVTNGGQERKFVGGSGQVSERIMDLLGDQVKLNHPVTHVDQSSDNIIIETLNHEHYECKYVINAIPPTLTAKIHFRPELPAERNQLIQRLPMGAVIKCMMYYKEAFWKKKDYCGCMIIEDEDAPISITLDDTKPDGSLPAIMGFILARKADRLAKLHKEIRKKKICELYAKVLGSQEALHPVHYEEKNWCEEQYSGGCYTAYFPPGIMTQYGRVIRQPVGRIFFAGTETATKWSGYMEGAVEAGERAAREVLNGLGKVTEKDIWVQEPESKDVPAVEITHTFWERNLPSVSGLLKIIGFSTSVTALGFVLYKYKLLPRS
Briefly: Activity on recombinant human MAO-A, Amplex Red method, 0.5 mM tyramine substrate. Particulars: read-out: Inhibitory Activity (IC50, nM) MAO-A. The method, then: as §1
(§2) In addition, the compounds according to the present technology were evaluated in terms of activity on a recombinant human MAO-A (monoamine oxidase-A, Sigma-Aldrich) and a recombinant human MAO-B (monoamine oxidase-B, Sigma-Aldrich) by using as substrates, 0.5 mM tyramine and 1 mM benzylamine, respectively, with a method similar to the activity evaluation method for recombinant human VAP-1. The compounds according to the present technology were also evaluated in terms of activity on a recombinant human DAO (diamine oxidase, R&D systems) by using as a substrate 1 mM putrescine with a method similar to the activity evaluation method for recombinant human VAP-1.

Test [2] deals with T3, recombinant human MAO-B (monoamine oxidase-B) (Homo sapiens, UniProt P27338).
T3 construct: purchased Sigma-Aldrich
T3 sequence (P27338 1-520): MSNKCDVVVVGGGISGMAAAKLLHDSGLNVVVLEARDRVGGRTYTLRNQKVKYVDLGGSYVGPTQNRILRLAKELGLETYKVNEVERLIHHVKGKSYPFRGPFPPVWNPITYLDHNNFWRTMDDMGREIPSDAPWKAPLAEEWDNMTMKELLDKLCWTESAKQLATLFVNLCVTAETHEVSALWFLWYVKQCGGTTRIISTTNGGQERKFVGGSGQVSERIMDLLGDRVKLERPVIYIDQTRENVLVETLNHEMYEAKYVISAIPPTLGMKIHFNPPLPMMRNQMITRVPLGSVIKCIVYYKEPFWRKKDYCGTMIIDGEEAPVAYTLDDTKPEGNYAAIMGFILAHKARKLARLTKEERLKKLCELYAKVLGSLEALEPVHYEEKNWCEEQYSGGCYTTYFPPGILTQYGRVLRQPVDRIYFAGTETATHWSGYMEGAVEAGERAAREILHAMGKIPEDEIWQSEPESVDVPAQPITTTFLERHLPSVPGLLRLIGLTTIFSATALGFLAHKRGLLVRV
Put plainly: Activity on recombinant human MAO-B, Amplex Red method, 1 mM benzylamine substrate. The settings on record: read-out: Inhibitory Activity (IC50, nM) MAO-B. The procedure:
as §1, §2

Test [3] concerns the target T4, recombinant human DAO (diamine oxidase) (Homo sapiens, UniProt P19801).
T4 construct: purchased R&D systems
T4 sequence (P19801 20-751): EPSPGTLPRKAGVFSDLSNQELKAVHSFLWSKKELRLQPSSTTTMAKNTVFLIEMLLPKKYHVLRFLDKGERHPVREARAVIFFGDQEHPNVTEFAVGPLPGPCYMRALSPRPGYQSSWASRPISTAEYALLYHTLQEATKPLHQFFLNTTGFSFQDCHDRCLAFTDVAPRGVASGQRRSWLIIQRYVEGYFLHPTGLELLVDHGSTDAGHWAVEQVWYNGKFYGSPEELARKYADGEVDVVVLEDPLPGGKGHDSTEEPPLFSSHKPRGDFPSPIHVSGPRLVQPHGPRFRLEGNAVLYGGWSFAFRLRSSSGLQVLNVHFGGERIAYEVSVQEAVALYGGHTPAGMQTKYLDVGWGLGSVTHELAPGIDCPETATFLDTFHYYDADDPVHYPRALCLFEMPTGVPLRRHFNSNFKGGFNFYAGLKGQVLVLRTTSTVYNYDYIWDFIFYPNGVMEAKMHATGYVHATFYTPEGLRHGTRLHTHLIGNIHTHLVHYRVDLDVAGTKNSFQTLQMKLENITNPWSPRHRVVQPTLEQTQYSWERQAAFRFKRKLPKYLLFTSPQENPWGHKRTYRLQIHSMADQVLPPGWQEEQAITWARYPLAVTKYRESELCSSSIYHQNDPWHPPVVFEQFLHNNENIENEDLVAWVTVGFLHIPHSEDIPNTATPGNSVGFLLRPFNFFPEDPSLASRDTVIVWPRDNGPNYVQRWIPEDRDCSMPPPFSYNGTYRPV
Put plainly: Activity on recombinant human DAO, Amplex Red method, 1 mM putrescine substrate. Particulars: recombinant human DAO, read-out: Inhibitory Activity (IC50, nM) DAO. The procedure: as §1, §2

The mark [4] stands for this setting: 1 mM putrescine, * = between 10 and 100 nM, ** = between 300 and 1000 nM.

Structures can show the parent of a compound that is named as a salt. Where two headings read alike, the source gives them in different places.

As for `NC/C(=C/F)Cn1ncn(-c2ncc(Br)cc2F)c1=O` [Example 35, 2-[(2Z)-2-(aminomethyl)-3-fluoroprop-2-en-1-yl]-4-(5-bromo-3-fluoropyridin-2-yl)-2,4-dihydro-3H-1,2,4-triazol-3-one hydrochloride], the IC50 (usually the concentration that gives 50% inhibition) on recombinant human VAP-1 (30 min preincubation at 37° C.) worked out at 6.6 nM; in test [1] (0.5 mM tyramine), 1500 nM; in test [2] (1 mM benzylamine), 503 nM; in test [3] (setting [4]), 14 nM.

Regarding `NC/C(=C/F)Cn1ncn(-c2ncc(-c3ccc4nonc4c3)s2)c1=O` [Example 234, 2-[(2Z)-2-(aminomethyl)-3-fluoroprop-2-en-1-yl]-4-[5-(2,1,3-benzooxadiazol-5-yl)-1,3-thiazol-2-yl]-2,4-dihydro-3H-1,2,4-triazol-3-one hydrochloride], the IC50 at recombinant human VAP-1 is 0.98 nM; in test [1] (0.5 mM tyramine substrate), under 100 nM; in test [2] (1 mM benzylamine substrate), 10.1 nM; in test [3] (1 mM putrescine substrate), under 100 nM.

With `Cc1cc(Br)cnc1-n1cnn(C/C(=C/F)CN)c1=O` [Example 32, 2-[(2E)-2-(aminomethyl)-3-fluoroprop-2-en-1-yl]-4-(5-bromo-3-methylpyridin-2-yl)-2,4-dihydro-3H-1,2,4-triazol-3-one hydrochloride], the IC50 at recombinant human VAP-1 (30 min preincubation at 37° C.) is 2.2 nM; in test [1] (0.5 mM tyramine), 93000 nM; in test [2] (1 mM benzylamine) it was 51 nM; in test [3] (setting [4]) it was over 100000 nM.

Consider `CS(=O)(=O)c1ccc(-c2cnc(-n3cnn(C/C(=C\F)CN)c3=O)s2)cc1` [Example 226, 2-[(2Z)-2-(aminomethyl)-3-fluoroprop-2-en-1-yl]-4-{5-[4-(methylsulfonyl)phenyl]-1,3-thiazol-2-yl}-2,4-dihydro-3H-1,2,4-triazol-3-one hydrochloride], for which the IC50 on recombinant human VAP-1 is 1.4 nM; in test [1] (0.5 mM tyramine substrate) it was over 100000 nM; in test [2] (1 mM benzylamine substrate) it was 11.4 nM; in test [3] (1 mM putrescine substrate), under 100 nM.

Regarding `CN(C)c1ccc(-c2cccc(-n3cnn(C/C(=C/F)CN)c3=O)c2)cc1` [Example 51, 2-[(2E)-2-(aminomethyl)-3-fluoroprop-2-en-1-yl]-4-[4′-(dimethylamino)biphenyl-3-yl]-2,4-dihydro-3H-1,2,4-triazol-3-one hydrochloride], the IC50 was 2 nM at recombinant human VAP-1 (30 min preincubation at 37° C.), over 100000 nM in test [1] (0.5 mM tyramine), 5600 nM in test [2] (1 mM benzylamine) and over 10000 nM in test [3] (setting [4]).

With `NC/C(=C\F)Cn1ncn(-c2cccc(/C=C/c3cnc4c(c3)NC(=O)CO4)n2)c1=O` [Example 241, 7-[(E)-2-[6-[1-[(E)-2-(aminomethyl)-3-fluoro-allyl]-5-oxo-1,2,4-triazol-4-yl]-2-pyridyl]vinyl]-1H-pyrido[2,3-b][1,4]oxazin-2-one hydrochloride], the IC50 at recombinant human VAP-1 was 0.5 nM; in test [1] (0.5 mM tyramine substrate), over 100000 nM; in test [2] (1 mM benzylamine substrate), over 10000 nM; in test [3] (1 mM putrescine substrate), 1 nM.

Regarding `CC(=O)Nc1cc(-c2cccc(-n3cnn(C/C(=C\F)CN)c3=O)c2)ccn1` [Example 80, N-[4-(3-{1-[(2Z)-2-(aminomethyl)-3-fluoroprop-2-en-1-yl]-5-oxo-1,5-dihydro-4H-1,2,4-triazol-4-yl}phenyl)pyridin-2-yl]acetamide hydrochloride], the concentration for half-maximal inhibition (IC50) at recombinant human VAP-1 (30 min preincubation at 37° C.) was 1.1 nM; in test [1] (0.5 mM tyramine), over 100000 nM; in test [2] (1 mM benzylamine) it was over 10000 nM; in test [3] (setting [4]) it was 12 nM.

Regarding `NC/C(=C\F)Cn1ncn(-c2cccc(-c3cccc(-c4ccc5c(c4)OCO5)c3)c2)c1=O` [Example 71, 2-[(2E)-2-(aminomethyl)-3-fluoroprop-2-en-1-yl]-4-[3′-(1,3-benzodioxol-5-yl)biphenyl-3-yl]-2,4-dihydro-3H-1,2,4-triazol-3-one hydrochloride], the IC50 on recombinant human VAP-1 (30 min preincubation at 37° C.) was 1 nM; in test [1] (0.5 mM tyramine), 17300 nM; in test [2] (1 mM benzylamine), 240 nM; in test [3] (setting [4]), under 30 nM.
